Values of other authors in US20080011293A1, “Stable Xylometazoline and Oxymetazoline Solution” (priority 1999, published 2008).
Like-named read-outs stand apart in the source and are kept apart here.

Test system: Pseudomonas aeruginosa

Structure (SMILES) | concentration above which the inhibitory effect sets in (pH of 5.6 adjusted using HCl and NaOH) | concentration above which the inhibitory effect sets in (pH of 7.4 (neutral)) | concentration required to trigger the inhibitory effect (under acid conditions) [% by weight]
OCC(O)CO [glycerol] | above 25 % by weight | above 30 % by weight | 
OC[C@@H](O)[C@@H](O)[C@H](O)[C@@H](O)CO [sorbitol] |  | identical | 40
